Data taken from PubChem BioAssay (NCI).
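Results reflect a 48-hour exposure of cells in 96-well plates to compound at five concentrations. TGI is the concentration that stops growth completely.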

What was measured:
Test in all cases: NCI tumour cell line growth inhibition, 48 h
[1] = system: BT-549 breast
[2] = system: LOX IMVI melanoma
[3] = system: SF-268 CNS
[4] = system: M14 melanoma
[5] = system: SN12C renal
[6] = system: HCC-2998 colon
[7] = system: SW-620 colon
[8] = system: NCI-H23 lung
[9] = system: NCI-H522 lung
[10] = system: HCT-116 colon
[11] = system: SK-MEL-28 melanoma
[12] = system: OVCAR-8 ovarian
[13] = system: UACC-62 melanoma
[14] = system: OVCAR-3 ovarian
[15] = system: MDA-N
[16] = system: SK-OV-3 ovarian
[17] = system: ACHN renal
[18] = system: KM12 colon
[19] = system: SF-539 CNS
[20] = system: DU-145 prostate

| Structure (SMILES) | TGI [1] [µM] | TGI [2] [µM] | TGI [3] [µM] | TGI [4] [µM] | TGI [5] [µM] | TGI [6] [µM] | TGI [7] [µM] | TGI [8] [µM] | TGI [9] [µM] | TGI [10] [µM] | TGI [11] [µM] | TGI [12] [µM] | TGI [13] [µM] | TGI [14] [µM] | TGI [15] [µM] | TGI [16] [µM] | TGI [17] [µM] | TGI [18] [µM] | TGI [19] [µM] | TGI [20] [µM] |
| --- | --- | --- | --- | --- | --- | --- | --- | --- | --- | --- | --- | --- | --- | --- | --- | --- | --- | --- | --- | --- |
| COc1cc(/C=C2\CCC(C)C3C2=NN(C(C)=O)C3c2cc(OC)c(OC)c(OC)c2)cc(OC)c1OC (stereo not given) | > 100 | > 100 | > 100 | > 100 | > 100 | > 100 | > 100 | > 100 | 22.2 | > 100 | > 51.2 | > 100 | > 100 | > 100 | > 100 | > 100 | > 100 | > 100 | > 100 | > 100 |
| C=C1C[C@@H]2O[C@H]3[C@H]4[C@@H](C[C@@H](C)[C@@H](OC(C)=O)[C@H]42)[C@@H](C)CO[C@@]3(C)[C@H](OC(C)=O)C[C@H]1O | > 100 | 38.7 | > 100 | > 100 | > 100 | > 100 | > 100 | > 100 | > 100 | > 100 | > 100 | > 100 | > 100 | > 100 | > 100 | > 100 | > 100 | > 100 | > 100 | > 100 |
| O=C(O)c1nc(-c2ccccc2)ncc1-c1nnnn1-c1ccccc1 | > 100 | > 100 | > 100 | > 100 | > 100 | > 100 | > 100 | > 100 | > 100 | > 100 | > 100 | > 100 | > 100 | > 100 | > 100 | > 100 | > 100 | > 100 | > 100 | > 100 |
